SMILES strings stand for the structures. ≈ marks a conversion by molar mass, not a printed value. Calls of active or inactive are those of the source. The rule behind the calls is not given here.

The source of these data is ChEMBL document CHEMBL1150670, “Anti-HIV agents derived from the ent-kaurane diterpenoid linearol” (J Nat Prod, 2002).

The test system of one series is H9. The experiment in a line: Cytotoxicity against human H9 cells by Coulter counting analysis. Type of series: cell-based.
In series [1] the test system is Human immunodeficiency virus 1. The experiment in a line: Antiviral activity against HIV1 3B replication in human H9 cells assessed as inhibition of p24 antigen production after 4 days by ELISA. Type of series: functional, organism-based. The following applies: for EC50: Human immunodeficiency virus 1, 3B, H9, 96 h.
The nature of series [2]: Therapeutic index, ratio of IC50 for human H9 cells to EC50 for HIV1 3B replication in human H9 cells. The series is classed as cell-based. Particulars: read-out: Ratio IC50/EC50.

`C=C1C[C@@]23C[C@@H]1CC[C@H]2[C@]1(C)CC[C@@H](OC(=O)c2cnccn2)[C@](C)(COC(C)=O)[C@@H]1C[C@@H]3OC(=O)c1cnccn1` came in with an IC50 in the series with H9 of 5.6 µg/mL (≈ 9.74 µM). The outcome in series [1] was inactive.
On the same counts, the results for `CC(=O)OC[C@]1(C)[C@@H]2C[C@H](O)[C@@]34CC(=O)[C@@H](CC[C@H]3[C@]2(C)CC[C@H]1O)C4` are greater than 100 µg/mL and “inactive”.
On the same counts, the results for `C=C1C[C@@]23C[C@@H]1CC[C@H]2[C@]1(C)CC[C@@H](OC(=O)c2ccc(SC)cc2)[C@](C)(COC(C)=O)[C@@H]1C[C@@H]3O` are 5.3 µg/mL (≈ 10.3 µM) and “inactive”.
`CC(=O)OC[C@]1(C)[C@@H]2C[C@H](OC(C)=O)[C@]34C[C@H](CC[C@H]3[C@]2(C)CC[C@H]1OC(C)=O)[C@@]1(CO1)C4` displayed an IC50 in the series with H9 of 20.6 µg/mL (≈ 44.5 µM). In addition, the selectivity ratio in series [2] is 163. Also, the EC50 in series [1] was 0.13 µg/mL (≈ 0.281 µM).
With `C=C1C[C@@]23C[C@@H]1CC[C@H]2[C@]1(C)CC[C@@H](OC(=O)c2ccc(OC)cc2)[C@](C)(COC(C)=O)[C@@H]1C[C@@H]3OC(=O)c1ccc(OC)cc1`, in the series with H9, the midpoint of inhibition, the IC50, lay at 1.9 µg/mL (≈ 3.01 µM). The selectivity ratio in series [2] was greater than 19.2. Moreover, the EC50 in series [1] was less than 0.1 µg/mL.
On the same counts, the results for `C=C1C[C@@]23C[C@@H]1CC[C@H]2[C@]1(C)CC[C@@H](OC(=O)CC)[C@](C)(COC(C)=O)[C@@H]1C[C@@H]3OC(=O)CC` are 16 µg/mL (≈ 33.7 µM), 6.1 and 2.63 µg/mL (≈ 5.54 µM).
Compound `C=C1C[C@@]23C[C@@H]1CC[C@H]2[C@]1(C)CC[C@@H](OC(=O)CC)[C@](C)(COC(C)=O)[C@@H]1C[C@@H]3O` showed a half-maximal inhibitory concentration (IC50) in the series on H9 of 22.2 µg/mL (≈ 53 µM). Besides, in series [1], the result was inactive.
On the same counts, the results for `C=C1C[C@@]23C[C@@H]1CC[C@H]2[C@]1(C)CC[C@@H](OC(=O)c2cccc([N+](=O)[O-])c2)[C@](C)(COC(C)=O)[C@@H]1C[C@@H]3OC(=O)c1cccc([N+](=O)[O-])c1` are 21.4 µg/mL (≈ 32.4 µM) and “inactive”.
Take `C=C1C[C@@]23C[C@@H]1CC[C@H]2[C@]1(C)CC[C@@H](OC(=O)c2ccc4c(c2)OCO4)[C@](C)(COC(C)=O)[C@@H]1C[C@@H]3OC(=O)c1ccc2c(c1)OCO2`: the IC50 in the series on H9 was 50.6 µg/mL (≈ 76.8 µM). The selectivity ratio in series [2] was found to be 184. For the same compound, the EC50 in series [1] was determined as 0.27 µg/mL (≈ 0.41 µM).
`C=C1C[C@@]23C[C@@H]1CC[C@H]2[C@]1(C)CC[C@@H](OC(=O)c2ccc(F)cc2)[C@](C)(COC(C)=O)[C@@H]1C[C@@H]3OC(=O)c1ccc(F)cc1` registered an IC50 in the series on H9 of 41.1 µg/mL (≈ 67.7 µM). Further, the outcome in series [1] was inactive.
`C=C1C[C@@]23C[C@@H]1CC[C@H]2[C@]1(C)CC[C@@H](OC(=O)c2ccco2)[C@](C)(COC(C)=O)[C@@H]1C[C@@H]3OC(=O)c1ccco1` yielded an IC50 in the series with H9 of 10.8 µg/mL (≈ 19.6 µM). Besides, the selectivity ratio in series [2] was 3.49. Moreover, the EC50 in series [1] was determined as 3.11 µg/mL (≈ 5.65 µM).
Consider `C=C1C[C@@]23C[C@@H]1CC[C@H]2[C@]1(C)CC[C@@H](OC(=O)c2ccccc2)[C@](C)(COC(C)=O)[C@@H]1C[C@@H]3OC(=O)c1ccccc1`, for which the IC50 with H9 was 2.2 µg/mL (≈ 3.85 µM). The outcome in series [1] was inactive.
On the same counts, the results for `C=C1C[C@@]23C[C@@H]1CC[C@H]2[C@]1(C)CC[C@@H](OC(=O)c2ccc(Cl)cc2)[C@](C)(COC(C)=O)[C@@H]1C[C@@H]3OC(=O)c1ccc(Cl)cc1` are 60.1 µg/mL (≈ 94 µM) and “inactive”.
On the same counts, the results for `C=C1C[C@@]23C[C@@H]1CC[C@H]2[C@]1(C)CC[C@@H](OC(=O)c2ccc(OC)cc2)[C@](C)(COC(C)=O)[C@@H]1C[C@@H]3O` are 2 µg/mL (≈ 4.03 µM) and “inactive”.
On the same counts, the results for `C=C1C[C@@]23C[C@@H]1CC[C@H]2[C@]1(C)CC[C@@H](OC(=O)c2ccc(SC)cc2)[C@](C)(COC(C)=O)[C@@H]1C[C@@H]3OC(=O)c1ccc(SC)cc1` are 59.8 µg/mL (≈ 90.2 µM) and “inactive”.
`C=C1C[C@@]23C[C@@H]1CC[C@H]2[C@]1(C)CC[C@@H](OC(=O)c2ccc(Cl)cc2)[C@](C)(COC(C)=O)[C@@H]1C[C@@H]3O`: the IC50 in the series on H9 worked out at 54 µg/mL (≈ 108 µM). Also, the result in series [1] was inactive.
On to `C=C1C[C@@]23C[C@@H]1CC[C@H]2[C@]1(C)CC[C@@H](OC(=O)c2ccc(C)cc2)[C@](C)(COC(C)=O)[C@@H]1C[C@@H]3OC(=O)c1ccc(C)cc1`, for which, in the series with H9, half-maximal inhibition (IC50) was put at 52.5 µg/mL (≈ 87.7 µM). Moreover, in series [2], the selectivity ratio was 50.1. Moreover, the EC50 in series [1] amounted to 1.05 µg/mL (≈ 1.75 µM).
Take `C=C1C[C@@]23C[C@@H]1CC[C@H]2[C@]1(C)CC[C@@H](OC(=O)c2ccc(F)cc2)[C@](C)(COC(C)=O)[C@@H]1C[C@@H]3O`: the midpoint of inhibition with H9, the IC50, lay at 57.7 µg/mL (≈ 119 µM). Also, in series [1], the outcome was inactive.
`C=C1C[C@@]23C[C@@H]1CC[C@H]2[C@]1(C)CC[C@@H](OC(=O)c2ccc4c(c2)OCO4)[C@](C)(COC(C)=O)[C@@H]1C[C@@H]3O`: in the series on H9, it took 5.3 µg/mL (≈ 10.4 µM) to reach half-maximal inhibition (IC50). In addition, the outcome in series [1] was inactive.
In the series on H9, `C=C1C[C@@]23C[C@@H]1CC[C@H]2[C@]1(C)CC[C@@H](OC(=O)c2ccc(C#N)cc2)[C@](C)(COC(C)=O)[C@@H]1C[C@@H]3OC(=O)c1ccc(C#N)cc1` returned an IC50 greater than 100 µg/mL. Besides, in series [1], the outcome was inactive.
On the same counts, the results for `C=C1C[C@@]23C[C@@H]1CC[C@H]2[C@]1(C)CC[C@@H](O)[C@](C)(COC(C)=O)[C@@H]1C[C@@H]3O` [LINEAROL] are 56.5 µg/mL (≈ 156 µM) and “inactive”.
On the same counts, the results for `C=C1C[C@@]23C[C@@H]1CC[C@H]2[C@]1(C)CC[C@@H](OC(=O)c2ccccc2)[C@](C)(COC(C)=O)[C@@H]1C[C@@H]3O` are 1.8 µg/mL (≈ 3.86 µM) and “inactive”.
On to `C=C1C[C@@]23C[C@@H]1CC[C@H]2[C@]1(C)CC[C@@H](OC(=O)c2ccccc2OC)[C@](C)(COC(C)=O)[C@@H]1C[C@@H]3OC(=O)c1ccccc1OC`, for which inhibition in the series with H9 was half-maximal at 6 µg/mL (≈ 9.51 µM) (IC50). For the same compound, in series [1], the result was inactive.
`C=C1C[C@@]23C[C@@H]1CC[C@H]2[C@]1(C)CC[C@@H](OC(=O)c2ccccc2OC)[C@](C)(COC(C)=O)[C@@H]1C[C@@H]3O` came in with an IC50 in the series with H9 of 5.4 µg/mL (≈ 10.9 µM). Also, the outcome in series [1] was inactive.
As for `CC(=O)OC[C@]1(C)[C@@H]2C[C@H](O)[C@]34C[C@H](CC[C@H]3[C@]2(C)CC[C@H]1O)[C@@]1(CO1)C4`, in the series on H9, the IC50 is greater than 100 µg/mL.
As to `CC(=O)O[C@@H]1CC[C@]2(C)[C@@H](C[C@H](O)[C@]34C[C@H](CC[C@@H]23)[C@@]2(CO2)C4)[C@@]1(C)CO`, the IC50 in the series on H9 was greater than 100 µg/mL. The outcome in series [1] was inactive.
On the same counts, the results for `C=C1C[C@@]23C[C@@H]1CC[C@H]2[C@]1(C)CC[C@@H](OC(=O)c2ccc([N+](=O)[O-])cc2)[C@](C)(COC(C)=O)[C@@H]1C[C@@H]3OC(=O)c1ccc([N+](=O)[O-])cc1` are greater than 100 µg/mL and “inactive”.

For orientation: IC50 means the concentration that gives 50% inhibition. Read a low IC50 as greater potency. Broadly, the EC50 is the concentration at which the effect is half-maximal.
